Data reported in ChEMBL document CHEMBL5252555, “Antimicrobial Polyketides from the Marine-Derived Fungus Spiromastix sp. SCSIO F190” (J Nat Prod, 2023).
≈ marks a conversion by molar mass, not a printed value.

Key:
Assay type in all cases: functional
Staphylococcus aureus [1] = experiment: Antibacterial activity against Staphylococcus aureus 16339 assessed as inhibition of bacterial growth incubated for 18 hrs by broth microdilution method
Staphylococcus aureus [2] = experiment: Antibacterial activity against Staphylococcus aureus 3090 assessed as inhibition of bacterial growth incubated for 18 hrs by broth microdilution method
Staphylococcus aureus [3] = experiment: Antibacterial activity against Staphylococcus aureus GDE4P037P assessed as inhibition of bacterial growth incubated for 18 hrs by broth microdilution method
Enterococcus faecalis [4] = experiment: Antibacterial activity against Enterococcus faecalis 36950 assessed as inhibition of bacterial growth incubated for 18 hrs by broth microdilution method
Staphylococcus aureus [5] = experiment: Antibacterial activity against Staphylococcus aureus 6917 assessed as inhibition of bacterial growth incubated for 18 hrs by broth microdilution method
Staphylococcus aureus [6] = experiment: Antibacterial activity against Staphylococcus aureus 745324 assessed as inhibition of bacterial growth incubated for 18 hrs by broth microdilution method
Staphylococcus aureus [7] = experiment: Antibacterial activity against Staphylococcus aureus ATCC 29213 assessed as inhibition of bacterial growth incubated for 18 hrs by broth microdilution method
Staphylococcus aureus [8] = experiment: Antibacterial activity against Staphylococcus aureus 991 assessed as inhibition of bacterial growth incubated for 18 hrs by broth microdilution method
Staphylococcus aureus [9] = experiment: Antibacterial activity against Staphylococcus aureus 718306 assessed as inhibition of bacterial growth incubated for 18 hrs by broth microdilution method
Staphylococcus aureus [10] = experiment: Antibacterial activity against Staphylococcus aureus 1862 assessed as inhibition of bacterial growth incubated for 18 hrs by broth microdilution method
Bacillus subtilis = experiment: Antibacterial activity against Bacillus subtilis BS01 assessed as inhibition of bacterial growth incubated for 18 hrs by broth microdilution method
Enterococcus gallinarum = experiment: Antibacterial activity against Enterococcus gallinarum 5F52C assessed as inhibition of bacterial growth incubated for 18 hrs by broth microdilution method
Enterococcus faecalis [11] = experiment: Antibacterial activity against Enterococcus faecalis ATCC 29212 assessed as inhibition of bacterial growth incubated for 18 hrs by broth microdilution method
Staphylococcus aureus [12] = experiment: Antibacterial activity against methicillin-resistant Staphylococcus aureus assessed as inhibition of bacterial growth incubated for 18 hrs by broth microdilution method
Micrococcus luteus = experiment: Antibacterial activity against Micrococcus luteus ML01 assessed as inhibition of bacterial growth incubated for 18 hrs by broth microdilution method
Staphylococcus aureus [13] = experiment: Antibacterial activity against Staphylococcus aureus 16162 assessed as inhibition of bacterial growth incubated for 18 hrs by broth microdilution method
Enterococcus faecium [14] = experiment: Antibacterial activity against Enterococcus faecium 35682 assessed as inhibition of bacterial growth incubated for 18 hrs by broth microdilution method
Staphylococcus aureus [15] = experiment: Antibacterial activity against Staphylococcus aureus 669 assessed as inhibition of bacterial growth incubated for 18 hrs by broth microdilution method
Enterococcus faecium [16] = experiment: Antibacterial activity against Enterococcus faecium 36235 assessed as inhibition of bacterial growth incubated for 18 hrs by broth microdilution method
Enterococcus faecium [17] = experiment: Antibacterial activity against Enterococcus faecium 36711 assessed as inhibition of bacterial growth incubated for 18 hrs by broth microdilution method
Staphylococcus simulans = experiment: Antibacterial activity against Staphylococcus simulans AKA1 assessed as inhibition of bacterial growth incubated for 18 hrs by broth microdilution method

Compound | MIC (Staphylococcus aureus [1]) | MIC (Staphylococcus aureus [2]) | MIC (Staphylococcus aureus [3]) | MIC (Enterococcus faecalis [4]) | MIC (Staphylococcus aureus [5]) | MIC (Staphylococcus aureus [6]) | MIC (Staphylococcus aureus [7]) | MIC (Staphylococcus aureus [8]) | MIC (Staphylococcus aureus [9]) | MIC (Staphylococcus aureus [10]) | MIC (Bacillus subtilis) | MIC (Enterococcus gallinarum) | MIC (Enterococcus faecalis [11]) | MIC (Staphylococcus aureus [12]) | MIC (Micrococcus luteus) | MIC (Enterococcus faecium [14]) | MIC (Staphylococcus aureus [15]) | MIC (Enterococcus faecium [16]) | MIC (Enterococcus faecium [17]) | MIC (Staphylococcus simulans) | further results
COc1c(Cl)c(O)c(Cl)c2c1C(=O)O[C@H](C)C2 | > 128 µg/mL | > 128 µg/mL | > 128 µg/mL | > 128 µg/mL | > 128 µg/mL | > 128 µg/mL | > 128 µg/mL | > 128 µg/mL | > 128 µg/mL | > 128 µg/mL | > 128 µg/mL | > 128 µg/mL | > 128 µg/mL | > 128 µg/mL | > 128 µg/mL | > 128 µg/mL | > 128 µg/mL | > 128 µg/mL | > 128 µg/mL | > 128 µg/mL | MIC (Staphylococcus aureus [13]): > 128 µg/mL
CCCc1c(Cl)c(OC)c(Cl)c2c1OC(=O)c1c(CCC)c(Cl)c(O)c(Cl)c1O2 | 8 µg/mL (≈ 16.7 µM) | 8 µg/mL (≈ 16.7 µM) | 4 µg/mL (≈ 8.33 µM) | 2 µg/mL (≈ 4.17 µM) | 4 µg/mL (≈ 8.33 µM) | 8 µg/mL (≈ 16.7 µM) | 32 µg/mL (≈ 66.6 µM) | 16 µg/mL (≈ 33.3 µM) | 16 µg/mL (≈ 33.3 µM) | 8 µg/mL (≈ 16.7 µM) | 0.5 µg/mL (≈ 1.04 µM) | 2 µg/mL (≈ 4.17 µM) | 16 µg/mL (≈ 33.3 µM) | 8 µg/mL (≈ 16.7 µM) | 1 µg/mL (≈ 2.08 µM) | 8 µg/mL (≈ 16.7 µM) | 8 µg/mL (≈ 16.7 µM) | 4 µg/mL (≈ 8.33 µM) | 4 µg/mL (≈ 8.33 µM) | 1 µg/mL (≈ 2.08 µM) | MIC (Staphylococcus aureus [13]): 8 µg/mL (≈ 16.7 µM)
CC1(C)S[C@@H]2[C@H](NC(=O)[C@H](N)c3ccccc3)C(=O)N2[C@H]1C(=O)O [AMPICILLIN] | 64 µg/mL (≈ 183 µM) |  |  |  | 64 µg/mL (≈ 183 µM) | 4 µg/mL (≈ 11.4 µM) | 1 µg/mL (≈ 2.86 µM) | 4 µg/mL (≈ 11.4 µM) | > 64 µg/mL | 4 µg/mL (≈ 11.4 µM) | 0.125 µg/mL (≈ 0.358 µM) | 8 µg/mL (≈ 22.9 µM) | 1 µg/mL (≈ 2.86 µM) | 32 µg/mL (≈ 91.6 µM) | 0.13 µg/mL (≈ 0.372 µM) | > 64 µg/mL | 8 µg/mL (≈ 22.9 µM) | > 64 µg/mL | > 64 µg/mL | > 64 µg/mL | 
CCCc1c(Cl)c(O)cc2c1Oc1cc(O)c(Cl)c(CCC)c1C(=O)O2 | 4 µg/mL (≈ 10.1 µM) | 4 µg/mL (≈ 10.1 µM) | 8 µg/mL (≈ 20.1 µM) | 2 µg/mL (≈ 5.03 µM) | 8 µg/mL (≈ 20.1 µM) | 4 µg/mL (≈ 10.1 µM) | 4 µg/mL (≈ 10.1 µM) | 2 µg/mL (≈ 5.03 µM) | 8 µg/mL (≈ 20.1 µM) | 4 µg/mL (≈ 10.1 µM) | 1 µg/mL (≈ 2.52 µM) | 8 µg/mL (≈ 20.1 µM) | 8 µg/mL (≈ 20.1 µM) | 4 µg/mL (≈ 10.1 µM) | 8 µg/mL (≈ 20.1 µM) | 32 µg/mL (≈ 80.6 µM) | 2 µg/mL (≈ 5.03 µM) | 16 µg/mL (≈ 40.3 µM) | 16 µg/mL (≈ 40.3 µM) | 4 µg/mL (≈ 10.1 µM) | MIC (Staphylococcus aureus [13]): 4 µg/mL (≈ 10.1 µM)
CCCc1c(O)c(Oc2c(Cl)c(O)c(Cl)c(CCC)c2C(=O)OC)c(Cl)c(OC)c1Cl | 8 µg/mL (≈ 15.6 µM) | 8 µg/mL (≈ 15.6 µM) | 16 µg/mL (≈ 31.2 µM) | 4 µg/mL (≈ 7.81 µM) | 8 µg/mL (≈ 15.6 µM) | 8 µg/mL (≈ 15.6 µM) | 8 µg/mL (≈ 15.6 µM) | 8 µg/mL (≈ 15.6 µM) | 16 µg/mL (≈ 31.2 µM) | 8 µg/mL (≈ 15.6 µM) | 4 µg/mL (≈ 7.81 µM) | 4 µg/mL (≈ 7.81 µM) | 16 µg/mL (≈ 31.2 µM) | 8 µg/mL (≈ 15.6 µM) | 4 µg/mL (≈ 7.81 µM) | 16 µg/mL (≈ 31.2 µM) | 8 µg/mL (≈ 15.6 µM) | 8 µg/mL (≈ 15.6 µM) | 8 µg/mL (≈ 15.6 µM) | 4 µg/mL (≈ 7.81 µM) | MIC (Staphylococcus aureus [13]): 8 µg/mL (≈ 15.6 µM)
CN[C@H](CC(C)C)C(=O)N[C@H]1C(=O)N[C@@H](CC(N)=O)C(=O)N[C@H]2C(=O)N[C@H]3C(=O)N[C@H](C(=O)N[C@H](C(=O)O)c4cc(O)cc(O)c4-c4cc3ccc4O)[C@H](O)c3ccc(c(Cl)c3)Oc3cc2cc(c3O[C@@H]2O[C@H](CO)[C@@H](O)[C@H](O)[C@H]2O[C@H]2C[C@](C)(N)[C@H](O)[C@H](C)O2)Oc2ccc(cc2Cl)[C@H]1O [VANCOMYCIN] |  |  |  | 0.5 µg/mL (≈ 0.345 µM) |  |  |  |  |  |  | 0.125 µg/mL (≈ 0.0863 µM) | 4 µg/mL (≈ 2.76 µM) | 2 µg/mL (≈ 1.38 µM) |  | 0.13 µg/mL (≈ 0.0897 µM) | > 64 µg/mL |  | > 64 µg/mL | > 64 µg/mL | 0.5 µg/mL (≈ 0.345 µM) | 
